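96-well plates; 48 h exposure; 5 concentrations. Endpoints by linear interpolation between flanking doses. Not reached: highest tested concentration assigned. GI50 is the concentration that inhibits growth by half. At the TGI there is no net growth.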
Legend:
Test in all cases: NCI anticancer screen, dose series, 48 h
SNB-19 CNS = test system: SNB-19 CNS
HS 578T breast = test system: HS 578T breast
HOP-92 NSCLC = test system: HOP-92 NSCLC
KM12 colon = test system: KM12 colon
DU-145 prostate = test system: DU-145 prostate
SF-295 CNS = test system: SF-295 CNS
HCC-2998 colon = test system: HCC-2998 colon
NCI-H23 lung = test system: NCI-H23 lung
HOP-62 NSCLC = test system: HOP-62 NSCLC
MDA-MB-435 = test system: MDA-MB-435
SR leukemia = test system: SR leukemia
NCI-H226 lung = test system: NCI-H226 lung
SK-MEL-28 melanoma = test system: SK-MEL-28 melanoma
BT-549 breast = test system: BT-549 breast
SK-OV-3 ovarian = test system: SK-OV-3 ovarian
TK-10 renal = test system: TK-10 renal
MDA-MB-231 breast = test system: MDA-MB-231 breast
HCT-15 colon = test system: HCT-15 colon
PC-3 prostate = test system: PC-3 prostate
RXF 393 renal = test system: RXF 393 renal
RPMI-8226 leukemia = test system: RPMI-8226 leukemia
786-0 renal = test system: 786-0 renal
SNB-75 CNS = test system: SNB-75 CNS
HL-60(TB) leukemia = test system: HL-60(TB) leukemia
NCI-H460 lung = test system: NCI-H460 lung
MCF7 breast = test system: MCF7 breast
MALME-3M melanoma = test system: MALME-3M melanoma
K-562 leukemia = test system: K-562 leukemia
A498 renal = test system: A498 renal
A549 NSCLC = test system: A549 NSCLC
HCT-116 colon = test system: HCT-116 colon
OVCAR-8 ovarian = test system: OVCAR-8 ovarian
COLO 205 colon = test system: COLO 205 colon
OVCAR-5 ovarian = test system: OVCAR-5 ovarian
ACHN renal = test system: ACHN renal
LOX IMVI melanoma = test system: LOX IMVI melanoma
T-47D breast = test system: T-47D breast
SW-620 colon = test system: SW-620 colon
SK-MEL-5 melanoma = test system: SK-MEL-5 melanoma
M14 melanoma = test system: M14 melanoma
CAKI-1 renal = test system: CAKI-1 renal
MOLT-4 leukemia = test system: MOLT-4 leukemia
SN12C renal = test system: SN12C renal
NCI-H522 lung = test system: NCI-H522 lung
SF-539 CNS = test system: SF-539 CNS
NCI/ADR-RES ovarian = test system: NCI/ADR-RES ovarian
UO-31 renal = test system: UO-31 renal
OVCAR-3 ovarian = test system: OVCAR-3 ovarian
UACC-62 melanoma = test system: UACC-62 melanoma
UACC-257 melanoma = test system: UACC-257 melanoma
SK-MEL-2 melanoma = test system: SK-MEL-2 melanoma
SF-268 CNS = test system: SF-268 CNS
IGROV1 ovarian = test system: IGROV1 ovarian

Structure (SMILES): C/C(=C\CCc1ccoc1)CC/C=C(\C)CCCC1=CC(=O)OC1
- GI50 (SNB-19 CNS): 17.7 µM
- TGI (SNB-19 CNS): > 100 µM
- GI50 (HS 578T breast): 3.26 µM
- TGI (HS 578T breast): 36 µM
- GI50 (HOP-92 NSCLC): 2.09 µM
- TGI (HOP-92 NSCLC): 13 µM
- GI50 (KM12 colon): 8.44 µM
- TGI (KM12 colon): 23.7 µM
- GI50 (DU-145 prostate): 24.8 µM
- TGI (DU-145 prostate): > 100 µM
- GI50 (SF-295 CNS): 3.79 µM
- TGI (SF-295 CNS): 18 µM
- GI50 (HCC-2998 colon): 8.4 µM
- TGI (HCC-2998 colon): 29.1 µM
- GI50 (NCI-H23 lung): 4.74 µM
- TGI (NCI-H23 lung): 29.6 µM
- GI50 (HOP-62 NSCLC): 16 µM
- TGI (HOP-62 NSCLC): 55 µM
- GI50 (MDA-MB-435): 5.76 µM
- TGI (MDA-MB-435): 34.1 µM
- GI50 (SR leukemia): 3.45 µM
- TGI (SR leukemia): 17.1 µM
- GI50 (NCI-H226 lung): 11 µM
- TGI (NCI-H226 lung): 29.4 µM
- GI50 (SK-MEL-28 melanoma): 7.98 µM
- TGI (SK-MEL-28 melanoma): 46.7 µM
- GI50 (BT-549 breast): 6.24 µM
- TGI (BT-549 breast): 25.9 µM
- GI50 (SK-OV-3 ovarian): 12.6 µM
- TGI (SK-OV-3 ovarian): 50.4 µM
- GI50 (TK-10 renal): 16.9 µM
- TGI (TK-10 renal): 63.9 µM
- GI50 (MDA-MB-231 breast): 5.97 µM
- TGI (MDA-MB-231 breast): 28.9 µM
- GI50 (HCT-15 colon): 4.47 µM
- TGI (HCT-15 colon): 20 µM
- GI50 (PC-3 prostate): 3.2 µM
- TGI (PC-3 prostate): 24.9 µM
- GI50 (RXF 393 renal): 3.17 µM
- TGI (RXF 393 renal): 15.7 µM
- GI50 (RPMI-8226 leukemia): 2.85 µM
- TGI (RPMI-8226 leukemia): 16.7 µM
- GI50 (786-0 renal): 9.16 µM
- TGI (786-0 renal): 42.2 µM
- GI50 (SNB-75 CNS): 4.46 µM
- TGI (SNB-75 CNS): 52 µM
- GI50 (HL-60(TB) leukemia): 6.3 µM
- TGI (HL-60(TB) leukemia): 32.7 µM
- GI50 (NCI-H460 lung): 5.21 µM
- TGI (NCI-H460 lung): 27.8 µM
- GI50 (MCF7 breast): 3.47 µM
- TGI (MCF7 breast): 36.9 µM
- GI50 (MALME-3M melanoma): 13.7 µM
- TGI (MALME-3M melanoma): 31.5 µM
- GI50 (K-562 leukemia): 4.8 µM
- TGI (K-562 leukemia): > 100 µM
- GI50 (A498 renal): 1.29 µM
- TGI (A498 renal): 16.5 µM
- GI50 (A549 NSCLC): 4.37 µM
- TGI (A549 NSCLC): > 100 µM
- GI50 (HCT-116 colon): 4.02 µM
- TGI (HCT-116 colon): 18.8 µM
- GI50 (OVCAR-8 ovarian): 5.11 µM
- TGI (OVCAR-8 ovarian): 29.8 µM
- GI50 (COLO 205 colon): 4.96 µM
- TGI (COLO 205 colon): 23.1 µM
- GI50 (OVCAR-5 ovarian): 12.5 µM
- TGI (OVCAR-5 ovarian): 68.9 µM
- GI50 (ACHN renal): 12.6 µM
- TGI (ACHN renal): > 100 µM
- GI50 (LOX IMVI melanoma): 4.84 µM
- TGI (LOX IMVI melanoma): 17.2 µM
- GI50 (T-47D breast): 2.27 µM
- TGI (T-47D breast): 22.9 µM
- GI50 (SW-620 colon): 12.1 µM
- TGI (SW-620 colon): > 100 µM
- GI50 (SK-MEL-5 melanoma): 2.55 µM
- TGI (SK-MEL-5 melanoma): 6.66 µM
- GI50 (M14 melanoma): 7.28 µM
- TGI (M14 melanoma): 45 µM
- GI50 (CAKI-1 renal): 5.01 µM
- TGI (CAKI-1 renal): > 100 µM
- GI50 (MOLT-4 leukemia): 3.94 µM
- TGI (MOLT-4 leukemia): 15.4 µM
- GI50 (SN12C renal): 11.2 µM
- TGI (SN12C renal): 39.6 µM
- GI50 (NCI-H522 lung): 5.45 µM
- TGI (NCI-H522 lung): 22.2 µM
- GI50 (SF-539 CNS): 13.2 µM
- TGI (SF-539 CNS): 40.1 µM
- GI50 (NCI/ADR-RES ovarian): 5.42 µM
- TGI (NCI/ADR-RES ovarian): 31 µM
- GI50 (UO-31 renal): 4.35 µM
- TGI (UO-31 renal): 48.7 µM
- GI50 (OVCAR-3 ovarian): 9.69 µM
- TGI (OVCAR-3 ovarian): 25 µM
- GI50 (UACC-62 melanoma): 4.73 µM
- TGI (UACC-62 melanoma): 29.7 µM
- GI50 (UACC-257 melanoma): 2.81 µM
- TGI (UACC-257 melanoma): 11.3 µM
- GI50 (SK-MEL-2 melanoma): 9.35 µM
- TGI (SK-MEL-2 melanoma): 22.6 µM
- GI50 (SF-268 CNS): 17.7 µM
- TGI (SF-268 CNS): > 100 µM
- GI50 (IGROV1 ovarian): 19.5 µM
- TGI (IGROV1 ovarian): > 100 µM
